Reference: US6569870B1, “Fluorinated quinolones as antimitotic and antitumor agents” (The University of North Carolina at Chapel Hill, priority 2000, dated 2003)
Like-named read-outs stand apart in the source and are kept apart here. One block for each molecule: values may come before it.

Assays:
[1] = tested on: NCI-H226, non-small cell lung cancer cell line; experiment: NCI HTCL in vitro screen, NCI-H226; format: cell-based, human; settings: for GI50: Homo sapiens, NCI-H226, log concentration that reduced cell growth by 50%, read-out: Cytotoxicity log GI50, NCI-H226 (converted)
Text: (§1) This assay involves determination of a test agent's effect on growth parameters against a panel of approximately 60 human tumor cell lines, mostly derived from solid tumors.

tubulin [2] = settings: previously reported (background); read-out: inhibition of tubulin polymerization IC50; cited from earlier work
SK-Me15, melanoma = experiment: NCI HTCL in vitro screen, SK-Me15; format: cell-based, human; settings: log concentration that reduced cell growth by 50%; for GI50: Homo sapiens, read-out: Cytotoxicity log GI50, SK-Me15 (converted)
Text: as §1

[3] = tested on: OVCAR-3 ovarian cell line; settings: mice bearing OVCAR-3 tumor; previously reported (background); cited from earlier work
[4] = tested on: panel of approximately 60 human tumor cell lines; experiment: NCI HTCL in vitro screen, mean over all cell lines; format: cell-based; settings: mean over all 60 cell lines; for GI50: Homo sapiens, read-out: Mean log GI50 (converted)
Method: Compounds 1-7 and 13 were tested in National Cancer Institute's HTCL screen (M. Grever et al., Seminars Oncol. 1992, 19, 622-638; A. Monks et al., J. Natl. Cancer Inst. 1991, 83, 757-766). This assay involves determination of a test agent's effect on growth parameters against a panel of approximately 60 human tumor cell lines, mostly derived from solid tumors.

tubulin [5] = tested on: T1, tubulin; experiment: Inhibition of tubulin polymerization (ITP); format: biochemical; settings: for IC50: 10 μM tubulin, read-out: ITP IC50 ± SD
T1 construct: ITP IC50 ± SD; other: 10 μM tubulin; ICB (% inhib ± SD); effect on tubulin polymerization; other: relative to combretastatin A-4; Ha

tubulin [6] = tested on: T1, tubulin; experiment: Inhibition of [3H]colchicine binding to tubulin (ICB); settings: for ICB (% inhib ± SD): 5 μM [3H]colchicine, 1 μM tubulin
[7] = tested on: panel of approximately 60 human tumor cell lines; settings: previously reported (L. Li et al. 1994); cited from earlier work
[8] = tested on: OVCAR-3, ovarian cancer cell line; experiment: NCI HTCL in vitro screen, OVCAR-3; format: cell-based, human; settings: for GI50: Homo sapiens, OVCAR-3, log concentration that reduced cell growth by 50%, read-out: Cytotoxicity log GI50, OVCAR-3 (converted)
Text: as §1

[9] = tested on: HCT-116, colon cancer cell line; experiment: NCI HTCL in vitro screen, HCT116; format: cell-based, human; settings: for GI50: Homo sapiens, HCT-116, log concentration that reduced cell growth by 50%, read-out: Cytotoxicity log GI50, HCT116 (converted)
Text: as §1

[10] = tested on: SF-268 CNS tumor cell line; experiment: NCI HTCL in vitro screen, SF-268; format: cell-based; settings: Homo sapiens, log concentration that reduced cell growth by 50%, read-out: Cytotoxicity log GI50, SF-268 (converted)
Text: as §1

[11] = tested on: SF-295 CNS tumor cell line; experiment: NCI HTCL in vitro screen, SF-295; format: cell-based, human; settings: for GI50: Homo sapiens, SF-295, log concentration that reduced cell growth by 50%, read-out: Cytotoxicity log GI50, SF-295 (converted)
Text: as §1

[12] = tested on: K-562, leukemia cell line; experiment: NCI 60 human tumor cell line (HTCL) in vitro screen, K562; format: cell-based; settings: log concentration that reduced cell growth by 50%, read-out: Cytotoxicity log GI50, K562 (converted)
Text: as §1

[13] = tested on: RXF-393, renal cancer cell line; experiment: NCI HTCL in vitro screen, RXF-393; format: cell-based, human; settings: log concentration that reduced cell growth by 50%; for GI50: Homo sapiens, RXF 393, read-out: Cytotoxicity log GI50, RXF-393 (converted)
Text: as §1

tubulin [14] = tested on: T1, tubulin; settings: data from literature (Kuo 1993; Hamel 1996; Xia 1998); read-out: ITP IC50 ± SD; cited from earlier work

IC50 (tubulin [5]): 0.68 ± 0.02 µM
ICB (% inhib ± SD) (tubulin [6]; 5 μM inhibitor): 39 ± 2 % inhib
SMILES: O=c1cc(-c2ccccc2F)[nH]c2cc3c(cc12)OCO3 [Compound 1, 2′-Fluoro-6,7-(methylenedioxy)-2-phenyl-4-quinolone]
GI50 [1]: 0.447 µM
IC50 (tubulin [2]): 0.85 µM
GI50 (SK-Me15, melanoma): 0.0209 µM
prolonging the life span of mice bearing the tumor [3]: 130%
GI50 [4]: 0.135 µM
average log G150 value in the HTCL screen [7]: −6.47
GI50 [8]: 0.0813 µM
GI50 [9]: 0.0603 µM
GI50 [10]: 2.29 µM
GI50 [11]: 0.055 µM

IC50 (tubulin [5]): > 40 µM
melting point: 119 to 120 °C
SMILES: CCOC(=O)COc1cc(-c2ccccc2F)nc2cc3c(cc12)OCO3 [Compound 2, 2′-Fluoro-6,7-(methylenedioxy)-2-phenyl-4-(O-ethylacetate)quinoline]
GI50 [1]: > 100 µM
GI50 [12]: 38 µM
GI50 (SK-Me15, melanoma): 72.4 µM
GI50 [4]: 79.4 µM
GI50 [13]: > 100 µM
GI50 [9]: 72.4 µM
GI50 [10]: > 100 µM
GI50 [11]: > 100 µM

IC50 (tubulin [5]): 0.46 µM
ICB (% inhib ± SD) (tubulin [6]; 1 μM inhibitor): 76 ± 5 % inhib
ICB (% inhib ± SD) (tubulin [6]; 5 μM inhibitor): 93 ± 1 % inhib
SMILES: Oc1cc(-c2ccccc2F)nc2ccc(N3CCCC3)cc12 [Compound 13]
GI50 [12]: 0.0324 µM
GI50 (SK-Me15, melanoma): < 0.01 µM
Cytotoxicity log GI50, SK-Me15 (SK-Me15, melanoma): <−8.00 M
Mean log GI50 [4]: −7.62 M
inhibition of [3H]colchicine binding to tubulin (tubulin [6]; relative to combretastatin A-4): nearly as active as the highly potent combretastatin A-4
GI50 [13]: < 0.01 µM
Cytotoxicity log GI50, RXF-393 [13]: <−8.00 M
GI50 [10]: 0.0389 µM

IC50 (tubulin [5]): 12 ± 3 µM
melting point: > 300 °C
SMILES: O=C(O)CCCOc1cc(-c2ccccc2F)nc2cc3c(cc12)OCO3 [Compound 5, 2′-Fluoro-6,7-(methylenedioxy)-2-phenyl-4-(O-ethyl 4′-butylacetic acid)quinoline]
GI50 [4]: 4.68 µM

IC50 (tubulin [5]): > 40 µM
melting point: 93 to 94 °C
SMILES: CCOC(=O)CCCOc1cc(-c2ccccc2F)nc2cc3c(cc12)OCO3 [Compound 4, 2′-Fluoro-6,7-(methylenedioxy)-2-phenyl-4-(O-ethyl 4′-butyrate)quinoline]
GI50 (SK-Me15, melanoma): 57.5 µM
GI50 [4]: 47.9 µM
GI50 [9]: > 100 µM
GI50 [10]: > 100 µM

IC50 (tubulin [5]): 3.2 ± 1 µM
SMILES: CC(C)(C)OC(=O)n1c(-c2ccccc2F)cc(=O)c2cc3c(cc21)OCO3 [Compound 7, N-Boc-2′-fluoro-6,7-(methylenedioxy)-2-phenyl-4-quinolone]
GI50 [1]: 0.0251 µM
fold more active than 1 against NCI-H226 ([1]; relative to compound 1): ~20 fold
GI50 [12]: > 100 µM
GI50 [4]: 0.589 µM
effect on tubulin polymerization (tubulin [5]): moderate activity
GI50 [13]: > 100 µM
GI50 [8]: 0.0324 µM
cytotoxicity relative to 1, OVCAR-3 ([8]; relative to compound 1): equipotent with 1
GI50 [9]: 0.0447 µM
cytotoxicity relative to 1, HCT-116 ([9]; relative to compound 1): equipotent with 1
GI50 [11]: 0.117 µM
cytotoxicity relative to 1, SF-295 ([11]; relative to compound 1): less active than 1

SMILES: Fc1ccccc1-c1cc(=S)c2cc3c(cc2[nH]1)OCO3 [Compound 6, 2′-Fluoro-6,7-(methylenedioxy)-2-phenylquino-4-thione]
GI50 [1]: 16.6 µM
GI50 [12]: 56.2 µM
GI50 (SK-Me15, melanoma): 4.07 µM
GI50 [4]: 15.5 µM
GI50 [13]: 29.5 µM
GI50 [8]: 21.4 µM
GI50 [9]: 5.5 µM
GI50 [10]: 20 µM
GI50 [11]: 11.7 µM

SMILES: O=c1[nH]c(C=Cc2ccccc2)nc2ccccc12 [Compound 18, 2-styrylquinazolin-4(3H)-one]
IC50 (tubulin [14]): 5 ± 0.6 µM

IC50 (tubulin [5]): > 20 µM
melting point: > 300 °C
SMILES: O=C(O)COc1cc(-c2ccccc2F)nc2cc3c(cc12)OCO3 [Compound 3, 2′-Fluoro-6,7-(methylenedioxy)-2-phenyl-4-(O-acetic acid)quinoline]
GI50 [1]: > 100 µM
GI50 [12]: > 100 µM
GI50 (SK-Me15, melanoma): > 100 µM
GI50 [4]: > 100 µM
GI50 [13]: > 100 µM
GI50 [8]: > 100 µM
GI50 [9]: > 100 µM
GI50 [10]: > 100 µM
GI50 [11]: > 100 µM
